In patent US7550438B2, “Methods for production of growth-promoting proteins and peptides for kidney epithelial cells” (The University of Chicago, priority 1997, dated 2009):
pEC50: −log10 of the molar value. Where “and” joins values, the source holds several entries; their conditions need not be identical. Equal entries are not always repeated. Where two headings read alike, the source gives them in different places.

Assays:
[1] = system: rats with mercuric chloride-induced acute renal failure; assay: Mercuric chloride-induced acute renal failure in rats: survival and renal function; format: in vivo, rat; details: for survival 7 days later: single dose s.c. 1 hour after mercuric chloride
From the text: Nephrotoxic and ischemic acute renal failure (ARF) induced experimentally in rats have long been used to model this syndrome in humans. […] Male rats weighed 200-225 gm at the start of the experiment. This dose was used because preliminary experiments indicated it results in survival of 25-50% of the animals 7 days later. […] An increase in serum creatinine concentration signals a decline in renal function because the injured kidney is unable to excrete endogenous creatinine in the urine so it accumulates in the blood.
The synthetic peptide […] (14-Ser) (SEQ ID NO: 15) (dissolved in sterile 0.01% bovine serum albumin in phosphate-buffered saline) was injected subcutaneously into rats to determine its effect on survival, recovery of renal fucntion, and stimulation of DNA synthesis. Multiple different peptides were studied including 14-Ser, […] (14-mer) (SEQ ID NO: 39), […] (16-mer) (SEQ ID NO: 4) […] (11-mer) (SEQ ID NO: 6), and […] (11-mer) (SEQ ID NO: 41). Different concentrations and times of administration were tested and compared.
Acute tubular necrosis was induced in 44 rats by the subcutaneous (s.c.) injection of mercuric chloride, and a single dose of 14-ser was administered s.c. 1 hour afterwards. Different amounts of the peptide were given to assesses its capacity to affect the outcome. Survival 7 days later was about twice as high in animals given 100-150 μg of peptide (63%) than in rats given 0-75 μg peptide (29%).
To determine the effect of the peptide on survival and recovery of renal function, acute tubular necrosis was induced in 59 rats; 29 received 14-Ser (100 μg/rat) and 30 received an equal volume of the vehicle s.c. 1 hour after administration of mercuric chloride. Enhanced survival (top panel) and renal functional recovery (bottom panel) of rats give a WGF-derived peptide after mercuric chloride-induced acute tubular necrosis are shown in FIG. 2A and FIG. 2B. Mercuric chloride was injected subcutaneously into each of the 59 rats, and 1 hour later 100 μg of WGF peptide (14-Ser) (n=29 rats) or the vehicle […] was given. Survival was greater in rats given the peptide than in animals receiving the vehicle as early as day 3 after administration of mercuric chloride. Blood was obtained from the tail vein on the days indicated, and serum creatinine concentration was measured. […] On days 2, 3 and 4, the lower creatinine concentration in peptide-treated rats indicates accelerated recovery of kidney function.
Experimental ARF was induced in rats by subcutaneous injection of mercuric chloride. The synthetic peptide […] […] In one experiment a total of 17 rats were injected with a dose of mercuric chloride shown to induce ARF. The different amounts of the peptide (known to stimulate growth of kidney cells in culture) were injected into the animals to assess capacity to improve the outcome. […] In contrast, two of three rats given 100 micrograms of peptide were alive, as were five of six given 200 micrograms. In summary, none of eight rats (0%) given up to 50 micrograms of peptide survived, whereas seven of nine (78%) given 100-200 micrograms did. Thus, the 11-mer WGF peptide improves survival in nephrotoxic ARF.
[…] Four days later, 63% of rats given the 14-Ser peptide were alive compared to 25% of animals receiving the vehicle (chi squared, P-0.0499); 50% of rats receiving EGF were alive (chi squared, P=N.S.). On day 5, 50% of rats given EGF were alive, compared to 12.5% of animals given the vehicle (chi squared, P=0.0436). […] These observations indicate that the 14-Ser peptide and EGF given after renal injury are similar in their ability to improve survival from the ARF syndrome.

[2] = system: monkey kidney epithelial cells of the BSC-1 line; assay: Growth-promoting (mitogenic) activity: number of cells in BSC-1 cultures counted four days after addition; format: cell-based, African green monkey; details: for pEC50: read-out: Growth-Stimulation K½; for stimulation of growth (increase in cell number compared to control at four days): agent alone at maximal mitogenic concentration (14-Ser 0.5 μg/ml; EGF, IGF-I 50 ng/ml; acidic FGF 100 pg/ml; basic FGF 1,000 pg/ml; vasopressin 75 pg/ml; K 10.4 mM; Na 180 mM)
BSC-1 cells = assay: Time of contact with cells required to commit them to accelerated growth (washout, count at four days); format: cell-based, African green monkey
Method: Confluent monolayers of BSC-1 cells are prepared as herein and exposed to the 14-Ser peptide (0.5 μg/ml) for different amounts of time (0 to 30 minutes). At the end of the defined exposure period, culture medium containing the mitogen was aspirated, the monolayer was rinsed to remove non-adherent peptide, and fresh medium was added. Four days later the number of cells in the culture was counted.
In these experiments a solution containing the peptide of interest was added to the cell monolayer; culture medium was then aspirated at a specified time thereafter. Then fresh medium without the peptide was added and the number of cells was counted four days later.

AQPYPQGNHEASYG
survival 7 days later ([1]; 0-75 μg peptide): 29%
recovery of renal function on days 3 and 4 ([1]; 100 μg/rat s.c. 1 hour after mercuric chloride): significantly more rapid recovery
serum creatinine concentration on day 2 compared to vehicle ([1]; 100 μg/rat s.c. 1 hour after mercuric chloride, P=0.034): significantly lower
serum creatinine concentration on day 1 ([1]; 100 μg/rat s.c. 1 hour after mercuric chloride, basal 0.5, similar with vehicle): 2.3 mg/dL
survival compared to vehicle 3 days after onset of ARF ([1]; 100 μg/rat s.c. 1 hour after mercuric chloride, chi squared P=0.035): significantly greater
survival by day 7 ([1]; 100 μg/rat s.c. 1 hour after mercuric chloride, vehicle 20%): 48%
survival on day 6 ([1]; 14-Ser 100 μg 1 hour after, EGF 20 μg 2 hours after mercuric chloride, vehicle 12%): 37.5%
survival four days later ([1]; 14-Ser 100 μg s.c. 1 hour after, EGF 20 μg s.c. 2 hours after mercuric chloride 2.25 mg/kg, vehicle 25%): 63%
survival 7 days later ([1]; 100-150 μg of peptide): 63%
renal function (serum creatinine) on day 3 compared to vehicle ([1]; given 24 hours before mercuric chloride, P=0.039): significantly better
pEC50 ([2]; + heparin (1 μg/ml)): 7.40
pEC50 ([2]; + keratan sulfate (2 μg/ml for 5 minutes prior to peptide, b158; 10 μg/ml)): 7.17
stimulation of growth (increase in cell number compared to control at four days) [2]: 25%
stimulation of growth (increase in cell number compared to control at four days) ([2]; listed as 14-Ser Peptide): 25-30%
stimulation of growth (increase in cell number compared to control at four days) ([2]; listed as 14-Ser peptide): 25-30% and 25%
pEC50 ([2]; peptide alone, BSC-1 cells, 4 days in culture): 6.90
exposure time for half-maximal stimulation (BSC-1 cells; 14-Ser 0.5 μg/ml): 1 min
maximal growth stimulation after 2 minutes exposure (BSC-1 cells; 14-Ser 0.5 μg/ml, count at four days): 29%
exposure time sufficient for maximal growth stimulation (commitment time) (BSC-1 cells; peptide then washed off, cells counted four days later): 2 min
